Results from ChEMBL document CHEMBL5728379, “Pyrido five-element aromatic ring compound, preparation method therefor and use thereof” (2021).

Test: Enzyme-Linked Immunosorbent Assay: EZH2 wild type: Experimental method: avdin of a final concentration of 100 nM was used to coat 96-well plate at 10 μL/well, placed in a wet box and shaken overnight, and then 100 μL 3% BSA per well was added and blocked for 1 h at room temperature. PRC2 complex (EZH2/EED/SUZ12/RbAp48/AEBP2), H3 (21-44) me0 substrate, methyl donor SAM and compound were added into each well of the blocked 96-well plate. The total reaction system was 100 μL, placed in a wet box and allowed to react for 1 h on shaker at room temperature. The plate was washed with TBS-T [20 mM Tris-HCl (pH 7.2-7.4, room temperature), 150 mM NaCl, 0.1% (v/v) Tween-20] for 3 times, blocked with 3% BSA for 10 min, and anti-H3K27me3 antibody was added and incubated for 1 h in a wet box on shaker at room temperature. The plate was washed again with TBS-T for 3 times, and blocked with 3% BSA per well for 10 min. Horseradish peroxidase-labeled secondary antibody was added and reacted in a wet box at room temperature for 1 h, and finally, washed with TBS-T for 3 times. 2 mg/ml OPD color developing solution (1004/well) was added for coloring, and the reaction was stopped with 2M H2SO4 (50 μL/well). The plate was read by a plate reader at 490 nm and IC50 of the compound was calculated using SoftMax Pro 5.4.1 software.

IC50: < 100 nM
Compound: Cc1cc(C)c(CNC(=O)c2cc3cccn3c(C(C)OCc3ccnn3C)c2C)c(=O)[nH]1 (stereo unspecified)
